Measured values reported in patent publication US10174013B2, “Benzimidazole derivatives as kinase inhibitors” (SELVITA S.A., priority 2012, dated 2019).
Read-outs that look alike come from different tables or passages of the source.

How the values were obtained:
Pim-1 = Pim-1 (Homo sapiens (Human), UniProt P11309); assay: ADP-Glo Kinase Assay, Pim-1; assay type: biochemical; settings: 1 μM compound; for inhibition at 1 µM: read-out: Pim-1 % INH (1 μM)
Method: (§1) Compounds of the present invention were tested for their inhibitory activity against Pim-1, Pim-2, Pim-3, Flt3 wt, Flt3 ITD, CDK2/E and DYRK1. The testing of the compounds was carried out using the ADP-Glo™ Kinase Assay from Promega Corporation (Madison, Wis., USA).
(§2) The ADP-Glo™ Kinase Assay is a luminescent ADP detection assay to measure kinase activity by quantifying the amount of ADP produced during a kinase reaction. The kinase assay is performed in kinase assay buffer (5 mM MOPS, pH 7.5, 5 mM MgCl2, 0.4 mM EDTA, 1.5 mM DTT). Test samples initially dissolved in DMSO at 10 mM were diluted with the assay buffer to 1000 nM. A 30 μL volume/well of a mixture of substrates containing ATP (final ATP concentration in each kinase assay was equal to its apparent ATP Km).
(§3) The assay was performed in two steps: first, after the kinase reaction, an equal volume of ADP-Glo™ Reagent was added to terminate the kinase reaction and deplete the remaining ATP. Second, the Kinase Detection Reagent was added to simultaneously convert ADP to ATP and allowed the newly synthesized ATP to be measured using a luciferase/luciferin reaction. The luminescent signal generated was proportional to the ADP concentration produced and was correlated with kinase activity. A microplate spectrophotometer (Synergy 2 multi-mode microplate reader [BioTek]) was used for detecting the luminescence. The data was normalized and the percent of inhibition was obtained according to the following equation: […]

FLT3wt = FLT3wt (Homo sapiens (Human), UniProt P36888); assay: ADP-Glo Kinase Assay, Flt3 wt; assay type: biochemical; settings: 1 μM compound
Method: as §1, §2, §3

CDK2/E = CDK2/E (Homo sapiens (Human), UniProt P24941); assay: ADP-Glo Kinase Assay, CDK2/E; assay type: biochemical; settings: 1 μM compound
Method: as §1, §2, §3

DYRK1 = DYRK1 (Homo sapiens (Human), UniProt Q13627); assay: ADP-Glo Kinase Assay, DYRK1; assay type: biochemical; settings: 1 μM compound; for inhibition at 1 µM: read-out: DYRK1A % INH (1 μM)
Method: as §1, §2, §3

MV4-11 cells = assay: Growth inhibition, MTS assay, MV4-11; assay type: cell-based, Human; settings: MTS cell viability, read-out: MV4-11 ED50
From the text: (§4) The following cell lines, were obtained and used in tests as outlined below: • Human myelomonocytic, biphenotypic leukemia MV4-11 cells (harboring a Flt3-ITD mutation); • Human Acute Myeloid Leukemia MOLM16 cells; • Human Acute Myeloid Leukemia MOLM13 cells (harboring a Flt3-ITD mutation); • Human Myeloid Leukemia KG-1 cells; • Human erythroleukemia HEL92 cells; • Human mantle cell lymphoma Jeko-1 cells; • Human hepatocellular carcinoma HepG2 cells; and • Human colon adenocarcinoma SW-480 cells.
(§5) The assays were carried out according to the following protocol, which is described as an example for the MV4-11 cells:
(§6) Ten thousand MV4-11 cells were inoculated into each well of a 96-well microplate (manufactured by Corning Corp.) using Iscove's MDM medium (culture medium) containing 10% fetal calf serum (FCS). The same day, a dimethyl sulfoxide (DMSO) solution of each test compound prepared in a concentration of 10 mmol/L was further diluted with DMSO to the desired concentrations (0.1, 0.5, 1, 2.5, 5 and 10 micromol/L), and the diluted solution was added to each well. The individual wells were further cultured in 5% carbon dioxide at 37° C. for 72 hours. […] Briefly, 10 μl MTS (3-(4,5-Dimethyl-2-thiazolyl)-5-(carboxymethoxyphenyl)-2-(4-sulfophenyl)-2H-tetrazolium was added to each well, and culturing was performed in 5% carbon dioxide at 37° C. for 2 hours. After this incubation and using a microplate spectrophotometer (Synergy 2 multi-mode microplate reader (BioTek)), the absorbance of each well was measured at 490 nm. The value for cells not incubated with a test compound was designated as 100%. By comparing these values with the absorbance difference obtained at the well in which each test compound was added, the cell viability (% viability) after treatment with the test compound was calculated.

HEL92 cells = assay: Growth inhibition, MTS assay, HEL92; assay type: cell-based, Human; settings: MTS cell viability, read-out: HEL92 ED50
From the text: as §4, §5, §6

HepG2 cells = assay: Growth inhibition, MTS assay, HepG2; assay type: cell-based, Human; settings: MTS cell viability, read-out: HepG2 ED50
From the text: as §4, §5, §6

Sequence of Pim-1 (P11309 whole entry): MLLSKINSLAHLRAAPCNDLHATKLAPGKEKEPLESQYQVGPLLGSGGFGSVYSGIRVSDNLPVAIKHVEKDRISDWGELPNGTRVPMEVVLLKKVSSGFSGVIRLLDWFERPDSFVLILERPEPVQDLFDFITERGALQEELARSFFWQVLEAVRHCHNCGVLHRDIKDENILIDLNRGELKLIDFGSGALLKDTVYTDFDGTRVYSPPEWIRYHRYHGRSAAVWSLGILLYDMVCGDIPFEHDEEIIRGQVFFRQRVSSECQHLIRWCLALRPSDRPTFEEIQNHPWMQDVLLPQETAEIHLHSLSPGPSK
Sequence of FLT3wt (P36888 27-993): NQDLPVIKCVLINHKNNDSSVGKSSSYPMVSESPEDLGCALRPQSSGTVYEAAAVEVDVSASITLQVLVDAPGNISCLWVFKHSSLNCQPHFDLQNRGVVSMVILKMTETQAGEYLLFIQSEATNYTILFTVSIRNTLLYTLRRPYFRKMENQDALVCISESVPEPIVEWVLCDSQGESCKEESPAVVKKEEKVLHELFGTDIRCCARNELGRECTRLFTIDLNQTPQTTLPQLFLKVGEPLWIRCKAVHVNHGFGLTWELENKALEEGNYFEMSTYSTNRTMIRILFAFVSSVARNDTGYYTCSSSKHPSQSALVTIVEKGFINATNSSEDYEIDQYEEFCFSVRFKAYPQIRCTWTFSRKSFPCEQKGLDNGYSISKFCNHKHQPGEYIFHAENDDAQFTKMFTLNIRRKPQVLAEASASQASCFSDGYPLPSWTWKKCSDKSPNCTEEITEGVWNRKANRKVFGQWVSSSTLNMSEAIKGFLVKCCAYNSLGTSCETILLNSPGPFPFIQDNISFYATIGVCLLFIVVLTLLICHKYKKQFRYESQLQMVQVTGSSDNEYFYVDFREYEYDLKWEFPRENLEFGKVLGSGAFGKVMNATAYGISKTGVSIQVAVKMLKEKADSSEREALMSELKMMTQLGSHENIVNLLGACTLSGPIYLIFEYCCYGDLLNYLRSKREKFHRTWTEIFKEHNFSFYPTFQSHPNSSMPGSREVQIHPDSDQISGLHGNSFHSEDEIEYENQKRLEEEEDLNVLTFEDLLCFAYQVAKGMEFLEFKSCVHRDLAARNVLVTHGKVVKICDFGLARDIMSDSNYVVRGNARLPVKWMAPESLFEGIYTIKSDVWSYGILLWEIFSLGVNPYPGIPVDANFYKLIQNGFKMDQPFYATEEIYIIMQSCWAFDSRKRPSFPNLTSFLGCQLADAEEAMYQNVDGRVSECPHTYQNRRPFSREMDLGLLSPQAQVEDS

SMILES | Pim-1 % INH (1 μM) (Pim-1) [%] | DYRK1A % INH (1 μM) (DYRK1) [%] | IC50 (MV4-11 cells; 72 hours) [nM] | IC50 (HEL92 cells; 72 hours) [nM] | IC50 (HepG2 cells; 72 hours) [nM] | inhibition at 1 µM (Pim-1) [%] | also measured
Cl.N[C@H]1CCN(c2nc3c([N+](=O)[O-])c(Br)c(Br)cc3n2CC2CC2)C1 [Example 1CK] | >95 | 23 | 2000 | 6900 | 5300 | – | Flt3wt % INH (1 μM) (FLT3wt): 30%; CDK2/E % INH (1 μM) (CDK2/E): 24%
N#Cc1c(Br)c(Br)cc2c1nc(N1CC[C@@H](N)C1)n2[C@H]1CCNC1 [Example 8G, 2-[(3R)-3-aminopyrrolidin-1-yl]-5,6-dibromo-1-[(3S)-pyrrolidin-3-yl]-1H-1,3-benzodiazole-4-carbonitrile] | – | – | – | – | – | > 95 | –
O=[N+]([O-])c1c(Br)c(Br)cc2c1nc(N1CCNCC1)n2CCO [Example 1DJ] | – | – | – | – | – | 95 | inhibition at 1 µM (DYRK1): > 95%; IC50 (MV4-11 cells; Homo sapiens, MV4-11, 72 h): 600 nM; IC50 (HEL92 cells; Homo sapiens, 72 h): 6700 nM; IC50 (HepG2 cells; Homo sapiens, HepG2, 72 h): 2100 nM
CCn1c(N2CCC[C@H](NC)C2)nc2c([N+](=O)[O-])c(Br)c(Br)cc21 [Example 1DZ] | – | – | – | – | – | > 95 | –
CC(C)n1c(NC2CCNCC2)nc2c([N+](=O)[O-])c(Br)c(Br)cc21 [Example 1DK] | >95 | 25 | 5500 | 5800 | 5700 | – | –
Cc1c(Br)cc2c(nc(N3CCNCC3)n2C(C)C)c1[N+](=O)[O-] [Example 4A, 5-methyl-6-bromo-4-nitro-2-(piperazin-1-yl)-1-(propan-2-yl)-1H-1,3-benzodiazole] | – | – | – | – | – | 81 | IC50 (MV4-11 cells; Homo sapiens, MV4-11, 72 h): 1000 nM; IC50 (HEL92 cells; Homo sapiens, 72 h): 8700 nM
O=[N+]([O-])c1c(Br)c(Br)cc2c1nc(N[C@@H]1CCNC1)n2CC1CC1 [Example 1CJ] | – | – | 5500 | 5500 | 5300 | – | –
O=[N+]([O-])c1c(Br)c(Br)cc2c1nc(N1CCNCC1)n2C1CCC1 [Example 1DG] | >95 | 92 | 200 | 1800 | 400 | – | –
CC(C)n1c(N2CC[C@@H](N)C2)nc2c([N+](=O)[O-])c(Br)c(F)cc21 [Example 1CY] | >95 | – | 2100 | 8900 | 2800 | – | Flt3wt % INH (1 μM) (FLT3wt): <5%
CC(C)n1c(N[C@@H]2CCNC2)nc2c([N+](=O)[O-])c(Br)c(Br)cc21 [Example 1BF] | – | – | 2000 | 7600 | 2300 | – | –
CC(C)n1c(NC2CCC(N)CC2)nc2c([N+](=O)[O-])c(Br)c(Br)cc21 (stereo not shown) [Example 1CQ] | >95 | 28 | 1700 | 6000 | – | – | Flt3wt % INH (1 μM) (FLT3wt): 17%; CDK2/E % INH (1 μM) (CDK2/E): 50%; IC50 (HepG2 cells; Homo sapiens, HepG2, 72 h): 2000 nM
COC1CN(c2nc3c([N+](=O)[O-])c(Br)c(Br)cc3n2C(C)C)CC1N (stereo not shown) [Example 1EB] | – | – | – | – | – | > 95 | –
CC(C)n1c(NC2CNC2)nc2c([N+](=O)[O-])c(Br)c(Br)cc21 [Example 1CR] | >95 | 70 | 1100 | 8700 | 1900 | – | Flt3wt % INH (1 μM) (FLT3wt): 44%
CCn1c(N2CCNC[C@@H]2C)nc2c(C#N)c(Br)c(Br)cc21 [Example 1DP] | – | – | – | – | – | > 95 | inhibition at 1 µM (FLT3wt; read-out: Flt3wt % INH (1 μM)): 57%; inhibition at 1 µM (DYRK1): > 95%; IC50 (MV4-11 cells; Homo sapiens, MV4-11, 72 h): 100 nM; IC50 (HEL92 cells; Homo sapiens, 72 h): 500 nM; IC50 (HepG2 cells; Homo sapiens, HepG2, 72 h): 200 nM
